In US10351530B2, “Arylcyclohexyl pyrazoles as NRF2 regulators” (GlaxoSmithKline Intellectual Property Development Limited, priority 2015, dated 2019) one finds EC50 and IC50 data, which are given here for 4 compounds.

Structures are written as SMILES.

As a reminder, the EC50 is the concentration needed to bring the measured effect to its halfway point. One may read the IC50 as the point on the concentration scale where inhibition reaches its midpoint. A lower IC50 goes with inhibition by little substance.

The subject of experiment [1] is NQO1 specific enzyme activity in BEAS-2B cells. Kind of experiment: BEAS-2B NQO1 MTT Assay. The experiment is classed as cell-based. The note with it: Homo sapiens, BEAS-2B, 48 h, NQO1 specific activity induction. The gist of the method: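 BEAS-2B cells exposed to compound for 48 h at 37 °C, 5% CO2, then lysed. NQO1 activity in crude lysate read kinetically by MTT cocktail absorbance at 570 nm over 30 min. pEC50 from ΔOD/min versus log concentration, 3-parameter fit.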

The target of the next experiment is T1, NRF2/Keap1 (Homo sapiens, UniProt Q14145).
T1 construct: full length NRF2 protein and full length Keap1 protein (Keap1 exists a dimer) are used
T1 sequence (Q14145 whole entry): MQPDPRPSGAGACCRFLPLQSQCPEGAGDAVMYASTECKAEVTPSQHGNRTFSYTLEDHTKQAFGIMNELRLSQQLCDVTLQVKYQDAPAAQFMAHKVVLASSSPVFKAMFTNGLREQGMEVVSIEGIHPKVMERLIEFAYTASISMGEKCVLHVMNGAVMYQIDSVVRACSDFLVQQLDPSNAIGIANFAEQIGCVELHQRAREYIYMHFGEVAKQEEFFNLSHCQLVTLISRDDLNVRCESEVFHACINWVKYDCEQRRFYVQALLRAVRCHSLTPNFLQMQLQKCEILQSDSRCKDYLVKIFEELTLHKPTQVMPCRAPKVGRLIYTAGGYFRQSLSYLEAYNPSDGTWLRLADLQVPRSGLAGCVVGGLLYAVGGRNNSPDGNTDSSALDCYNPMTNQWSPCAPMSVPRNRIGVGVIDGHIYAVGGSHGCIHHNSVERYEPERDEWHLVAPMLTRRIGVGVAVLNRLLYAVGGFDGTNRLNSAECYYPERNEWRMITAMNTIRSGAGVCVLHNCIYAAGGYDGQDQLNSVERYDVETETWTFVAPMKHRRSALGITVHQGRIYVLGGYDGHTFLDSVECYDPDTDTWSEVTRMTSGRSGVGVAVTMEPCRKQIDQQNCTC
Nature of the experiment: NRF2-Keap1 TR-FRET Low Protein Assay (full length NRF2 and full length Keap1). The experiment is classed as binding. As to conditions: low protein: 1.25 nM Keap1 FlagHis, 2.5 nM biotin-NRF2 added. The source says: In the NRF2-Keap1 TR-FRET (time-resolved fluorescence resonance energy transfer) low protein assay, full length NRF2 protein and full length Keap1 protein (Keap1 exists a dimer) are used. The assay detects a compound's ability to displace the binding of Keap1 FlagHis with biotinylated Avi-NRF2 protein. Biotin-NRF2 binds to streptavidin-europium (a component of the detection mix) and Keap1 FlagHis is recognized by anti-Flag APC (allophycocyanin) antibody (also a component of the detection mix). If binding occurs between the two proteins, there will be an energy transfer from the Eu+3 (donor) at 615 nm to the APC (acceptor) at 665 nm. A potential NRF2 inhibitor will cause a reduction in the TR-FRET signal by interfering with the binding of Keap1 to NRF2.
Ten nanoliters of 100× compound dose response curves (serial 3-fold dilutions) in DMSO are stamped using an Echo liquid handling system (Labcyte) into 384-well, low volume, black assay plates (Greiner, #784076), with DMSO in columns 6 and 18. An additional 90 nl DMSO is added to each well, to bring the total volume to 100 nl per well. The top concentration of compound is located in columns 1 and 13, with the serial dilutions going across the row. All reagents are diluted in assay buffer (50 mM Tris, pH 8.0, 5 mM MgCl2, 100 mM NaCl, 0.005% BSA, 1 mM DTT, and 2 mM CHAPS. The BSA, DTT, and CHAPS are added to the assay buffer on the day of assay. Using a Multidrop Combi (Thermo Electron Corporation) equipped with a metal tip dispenser, 5 ul of 1.25 nM Keap1 FlagHis protein is added to all wells of the compound plate, with the exception of the wells in column 18. Wells in column 18 receive 5 ul of assay buffer instead. Plates are centrifuged at 500 rpm for 1 minute, covered with a plate lid, and incubated at 37° C. for 2.25 hours. Plates are then removed from the incubator and allowed to cool to RT for 15 minutes. Five microliters of 2.5 nM biotin-NRF2 protein is then added to all wells of the plates and the plates are spun at 500 rpm for 1 minute, followed by incubating at 4° C. for 1.25 hours. The plates are then allowed to warm to RT for 15 minutes, followed by the addition of 10 ul of detection mix (1 nM Streptavidin Eu+ W1024 and 5 ug/ml mouse anti-DYKDDDDK IgG conjugated to SureLight APC antibody; both from Columbia Biosciences) to all wells. Plates are spun at 500 rpm for 1 minute, incubated for 1 hour at RT, and read on an Envision plate reader using a 320 nm excitation filter and 615 nm and 665 nm emission filters. Compound response (% inhibition) and potency (pIC50) are calculated based on the ratio of the two emissions (665 nm/615 nm) and then the transformed data is normalized against controls in the assay (control 1=1% DMSO in the presence of NRF2 and Keap1 protein and control 2=1% DMSO in the presence of only the NRF2 protein). Data analysis is handled using the software package Abase XE (Surrey, United Kingdom). The % inhibition values are calculated from the ratio (transformed) data by the equation: 100−(100*(compound response-average control 2)/(average control 1−average control 2)). For calculation of pIC50s, Abase XE uses a four parameter equation.
For orientation: TR-FRET usually uses a lanthanide donor and a delayed reading to cut background.

A further experiment addresses T2, Keap1/NRF2 (Homo sapiens, UniProt Q14145).
T2 construct: Keap1 (321-609) is diluted to 40 nM (2×) in 1× assay buffer
Nature of the experiment: NRF2-Keap1 FP Assay (Kelch domain (321-609) of Keap1, TAMRA-labeled NRF2 ETGE peptide). Type of experiment: binding. The note with it: Keap1 (321-609) 20 nM, Tamra labeled peptide 8 nM. The method in brief:
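Fluorescence polarization competition: Keap1 Kelch (321-609) at 20 nM final and TAMRA-ETGE 16-mer peptide at 8 nM final with 3-fold compound dilutions, 1 h room temperature in Tris pH 8.0 buffer (NaCl, MgCl2, DTT, CHAPS, BSA). mP normalized to protein+peptide and peptide-alone controls; pIC50 by four-parameter fit.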

T2 sequence (Q14145 321-609): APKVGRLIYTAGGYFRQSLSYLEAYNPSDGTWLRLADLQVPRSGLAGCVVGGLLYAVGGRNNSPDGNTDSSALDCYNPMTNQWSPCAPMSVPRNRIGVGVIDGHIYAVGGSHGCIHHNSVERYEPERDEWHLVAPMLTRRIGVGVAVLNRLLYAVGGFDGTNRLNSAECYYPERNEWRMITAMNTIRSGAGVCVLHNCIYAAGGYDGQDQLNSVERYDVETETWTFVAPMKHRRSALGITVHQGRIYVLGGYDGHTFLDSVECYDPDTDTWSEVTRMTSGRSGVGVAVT

In experiment [1], `Cn1cc([C@@H]2C[C@H]2c2c(C(=O)O)cnn2-c2cccc(N3CCCC(CCC4CCCCC4)C3)c2)nn1` (stereo partly drawn) [Example 35, 1-(3-(3-(2-cyclohexylethyl)piperidin-1-yl)phenyl)-5-((1R,2R)-2-(1-methyl-1H-1,2,3-triazol-4-yl)cyclopropyl)-1H-pyrazole-4-carboxylic Acid] returned a 50% effective concentration (EC50) of 0.001 to 0.01 µM. For the same compound, the IC50 at NRF2/Keap1 and at Keap1/NRF2 was 0.01 to 0.1 µM throughout.

In turn, `Cn1cc([C@@H]2C[C@H]2c2c(C(=O)O)cnn2-c2cccc(N3CCC[C@H](CCC4CCCCC4)C3)c2)nn1` [Example 36c, 1-(3-((S)-3-(2-Cyclohexylethyl)piperidin-1-yl)phenyl)-5-((1R,2R)-2-(1-methyl-1H-1,2,3-triazol-4-yl)cyclopropyl)-1H-pyrazole-4-carboxylic Acid] yielded an EC50 in experiment [1] of 0.01 to 0.1 µM. In addition, the IC50 against NRF2/Keap1 and against Keap1/NRF2 was 0.01 to 0.1 µM throughout.

On to `Cn1cc([C@@H]2C[C@H]2c2c(C(=O)O)cnn2-c2cccc(N3CCC[C@@H](CCC4CCCCC4)C3)c2)nn1` [Example 36d, 1-(3-((R)-3-(2-cyclohexylethyl)piperidin-1-yl)phenyl)-5-((1R,2R)-2-(1-methyl-1H-1,2,3-triazol-4-yl)cyclopropyl)-1H-pyrazole-4-carboxylic Acid], for which the EC50 in experiment [1] fell in the range of 0.001 to 0.01 µM. The IC50 at NRF2/Keap1 and on Keap1/NRF2 was 0.01 to 0.1 µM throughout.

In experiment [1], `Cn1cc([C@@H]2C[C@H]2c2c(C(=O)O)cnn2-c2cccc(N3CCC[C@@H](OCC4CCCCC4)C3)c2)nn1` [Example 43, 1-(3-((R)-3-(Cyclohexylmethoxy)piperidin-1-yl)phenyl)-5-((1R,2R)-2-(1-methyl-1H-1,2,3-triazol-4-yl)cyclopropyl)-1H-pyrazole-4-carboxylic Acid] yielded an EC50 of 0.1 to 1 µM. Besides, the IC50 on NRF2/Keap1 lay in the range of 0.01 to 0.1 µM; at Keap1/NRF2, 0.1 to 1 µM.
